Assays:
Assay type in all cases: cell-based
Set-up in all cases: unit not given here
[1] = system: Pasteurella multocida 68C; assay: MIC, broth-dilution microtiter test (Table III)
Protocol: (§1) The MIC's in Table II were determined by standard agar-dilution assays. The MIC's in Table III were obtained using a conventional broth-dilution microtiter test.

[2] = system: Pasteurella haemolytica 41D; assay: MIC, broth-dilution microtiter test (Table III)
Protocol: as §1

[3] = system: Pasteurella multocida 22A; assay: MIC, broth-dilution microtiter test (Table III)
Protocol: as §1

[4] = system: Pasteurella multocida 17E; assay: MIC, broth-dilution microtiter test (Table III); conditions: bovine isolate
Protocol: as §1

[5] = system: Pasteurella haemolytica 22C; assay: MIC, broth-dilution microtiter test (Table III)
Protocol: as §1

[6] = system: Pasteurella haemolytica 23C; assay: MIC, broth-dilution microtiter test (Table III)
Protocol: as §1

Mycoplasma hyorhinis = assay: MIC, broth-dilution microtiter test (Table III)
Protocol: as §1

Streptococcus sp. 80 = assay: MIC, broth-dilution microtiter test (Table III)
Protocol: as §1

Mycoplasma synoviae = assay: MIC, broth-dilution microtiter test (Table III)
Protocol: as §1

Mycoplasma gallisepticum = assay: MIC, broth-dilution microtiter test (Table III)
Protocol: as §1

[7] = system: Pasteurella multocida 60A; assay: MIC, broth-dilution microtiter test (Table III); conditions: avian isolate
Protocol: as §1

[8] = system: Pasteurella multocida 40G; assay: MIC, broth-dilution microtiter test (Table III)
Protocol: as §1

Staphylococcus aureus = assay: MIC, broth-dilution microtiter test (Table III)
Protocol: as §1

[9] = system: Staphylococcus aureus X400; assay: MIC, standard agar-dilution assay (Table II); conditions: Staphylococcus aureus X400, methicillin-resistant strain
Protocol: as §1

[10] = system: Streptococcus Group D X66; assay: MIC, standard agar-dilution assay (Table II)
Protocol: as §1

[11] = system: Haemophilus influenzae Holt; assay: MIC, standard agar-dilution assay (Table II); conditions: ampicillin-sensitive strain
Protocol: as §1

[12] = system: Streptococcus pyogenes C203; assay: MIC, standard agar-dilution assay (Table II)
Protocol: as §1

[13] = system: Staphylococcus aureus V41; assay: MIC, standard agar-dilution assay (Table II); conditions: Staphylococcus aureus V41, penicillin-resistant strain
Protocol: as §1

[14] = system: Streptococcus Group D 9960; assay: MIC, standard agar-dilution assay (Table II)
Protocol: as §1

[15] = system: Streptococcus pneumoniae Park I; assay: MIC, standard agar-dilution assay (Table II)
Protocol: as §1

[16] = system: Staphylococcus epidermidis EPI1; assay: MIC, standard agar-dilution assay (Table II)
Protocol: as §1

[17] = system: Staphylococcus aureus X1.1; assay: MIC, standard agar-dilution assay (Table II)
Protocol: as §1

[18] = system: Staphylococcus aureus S13E; assay: MIC, standard agar-dilution assay (Table II)
Protocol: as §1

[19] = system: Haemophilus influenzae R252; assay: MIC, standard agar-dilution assay (Table II); conditions: Haemophilus influenzae R252, ampicillin-resistant strain
Protocol: as §1

[20] = system: Staphylococcus epidermidis EPI2; assay: MIC, standard agar-dilution assay (Table II)
Protocol: as §1

Row | Structure (SMILES) | minimal inhibitory concentration (MIC) [1] | minimal inhibitory concentration (MIC) [2] | minimal inhibitory concentration (MIC) [3] | minimal inhibitory concentration (MIC) [4] | minimal inhibitory concentration (MIC) [5] | minimal inhibitory concentration (MIC) [6] | minimal inhibitory concentration (MIC) (Mycoplasma hyorhinis) | minimal inhibitory concentration (MIC) (Streptococcus sp. 80) | minimal inhibitory concentration (MIC) (Mycoplasma synoviae) | minimal inhibitory concentration (MIC) (Mycoplasma gallisepticum) | minimal inhibitory concentration (MIC) [7] | minimal inhibitory concentration (MIC) [8] | minimal inhibitory concentration (MIC) (Staphylococcus aureus) | minimal inhibitory concentration (MIC) [9] | minimal inhibitory concentration (MIC) [10] | minimal inhibitory concentration (MIC) [11] | minimal inhibitory concentration (MIC) [12] | minimal inhibitory concentration (MIC) [13] | minimal inhibitory concentration (MIC) [14] | minimal inhibitory concentration (MIC) [15] | other results
1 | CCC1OC(=O)CC(O)C(C)C(OC2OC(C)C(OC(C)=O)C(N(C)C)C2OC(C)=O)C(CC=O)CC(C)C(=O)C=CC(C)=CC1COC(=O)C(Cl)Cl (stereo not drawn) [Compound 66, 2',4'-Di-O-acetyl-23-O-dichloroacetyl-OMT] | 3.12 | 25 | 3.12 | 3.12 | 25 | 12.5 | 6.25 | < 0.78 | 1.56 | 1.56 | 6.25 | 3.12 | 3.12 | 2 | 1 | 2 | 0.25 | 2 | 2 | 0.125 | minimal inhibitory concentration (MIC) [16]: 1; minimal inhibitory concentration (MIC) [17]: 1; minimal inhibitory concentration (MIC) [18]: 1; minimal inhibitory concentration (MIC) [19]: 1; minimal inhibitory concentration (MIC) [20]: 2
2 | CCC1OC(=O)CC(O)C(C)C(OC2OC(C)C(O)C(N(C)C)C2OC(C)=O)C(CC=O)CC(C)C(=O)C=CC(C)=CC1COC(=O)C12CC3CC(CC(C3)C1)C2 (stereo not drawn) [Compound 69] | 12.5 | 25 | 12.5 | 12.5 | 25 | 25 | 3.12 | 1.56 | 1.56 | 0.78 | 12.5 | 12.5 | 6.25 | 1 | 2 | 8 | 1 | 1 | 2 | 0.5 | minimal inhibitory concentration (MIC) [16]: 1; minimal inhibitory concentration (MIC) [17]: 1; minimal inhibitory concentration (MIC) [18]: 1; minimal inhibitory concentration (MIC) [19]: 16; minimal inhibitory concentration (MIC) [20]: 1
3 | CCC1OC(=O)CC(O)C(C)C(OC2OC(C)C(O)C(N(C)C)C2O)C(CC=O)CC(C)C(=O)C=CC(C)=CC1COC(=O)C12CC3CC(CC(C3)C1)C2 (stereo not drawn) [Compound 70] | 12.5 | 25 | 12.5 | 12.5 | 25 | 25 | 3.12 | 1.56 | 0.39 | 1.56 | 25 | 12.5 | 6.25 | 1 | 2 | 8 | 1 | 1 | 2 | 0.5 | minimal inhibitory concentration (MIC) [16]: 1; minimal inhibitory concentration (MIC) [17]: 1; minimal inhibitory concentration (MIC) [18]: 1; minimal inhibitory concentration (MIC) [19]: 16; minimal inhibitory concentration (MIC) [20]: 1
4 | CCC1OC(=O)CC(O)C(C)C(OC2OC(C)C(O)C(N(C)C)C2OC(C)=O)C(CC=O)CC(C)C(=O)C=CC(C)=CC1COC(=O)c1ccc2ccccc2c1 (stereo not drawn) [Compound 58] | 1.56 | 6.25 | 6.25 | 3.12 | 12.5 | 6.25 | 6.25 | 0.78 | 0.78 | < 0.05 | 3.12 | 3.12 | 1.56 | 0.5 | 0.25 | 2 | 0.125 | 0.5 | 0.5 | 0.03 | minimal inhibitory concentration (MIC) [16]: 0.25; minimal inhibitory concentration (MIC) [17]: 0.25; minimal inhibitory concentration (MIC) [18]: 0.25; minimal inhibitory concentration (MIC) [19]: 1; minimal inhibitory concentration (MIC) [20]: 0.5
5 | CCC1OC(=O)CC(O)C(C)C(OC2OC(C)C(O)C(N(C)C)C2OC(C)=O)C(CC=O)CC(C)C(=O)C=CC(C)=CC1COC(=O)Cc1ccc([N+](=O)[O-])cc1 (stereo not drawn) [Compound 64] | 1.56 | 3.12 | 1.56 | 1.56 | 3.12 | 3.12 | 0.78 | < 0.05 | < 0.05 | 0.097 | 1.56 | 1.56 | 0.78 | 0.125 | 0.125 | 1 | 0.06 | 0.125 | 0.125 | 0.015 | minimal inhibitory concentration (MIC) [16]: 0.125; minimal inhibitory concentration (MIC) [17]: 0.125; minimal inhibitory concentration (MIC) [18]: 0.125; minimal inhibitory concentration (MIC) [19]: 1; minimal inhibitory concentration (MIC) [20]: 0.25
6 | CCC1OC(=O)CC(O)C(C)C(OC2OC(C)C(O)C(N(C)C)C2OC(=O)Cc2ccccc2)C(CC=O)CC(C)C(=O)C=CC(C)=CC1COC(=O)Cc1ccccc1 (stereo not drawn) [Compound 53, 2',23-Di-O-Phenylacetyl-OMT] | 0.78 | 3.12 | 1.56 | 1.56 | 3.12 | 3.12 | 3.12 | < 0.05 | < 0.05 | < 0.05 | 1.56 | 1.56 | 0.195 | 0.25 | 0.25 | 1 | 0.06 | 0.25 | 0.25 | 0.03 | minimal inhibitory concentration (MIC) [16]: 0.25; minimal inhibitory concentration (MIC) [17]: 0.25; minimal inhibitory concentration (MIC) [18]: 0.25; minimal inhibitory concentration (MIC) [19]: 1; minimal inhibitory concentration (MIC) [20]: 0.25
